Laboratory results published in patent US12558337B2, “Formulations comprising melflufen” (ON[…], priority 2019, dated 2026).
Where “and” joins values, the source holds several entries; their conditions need not be identical. Equal entries are not always repeated.

Experiments:
Format in all cases: physicochemical
[1] = Stability of isolated melflufen freebase oil; details: colorless oil; room temperature; several days
Method: The hydrochloride salt of melflufen may be prepared as disclosed in WO 01/96367, which is incorporated herein by reference. Ethanesulfonate, maleate and p-toluenesulfonate salts of melflufen were prepared by treating the melflufen freebase with 1 equivalent of the respective acid in dichloromethane or ethyl acetate. If required, heptane was added to initiate salt precipitation. All salts were isolated as white solids in a 1:1 ratio of melflufen and counterion, and dried under high vacuum. Melflufen freebase was prepared from melflufen hydrochloride using NaHCO3 and dichloromethane (DCM). Melflufen hydrochloride was suspended in 100 mL of dichloromethane before an ice-cold solution of NaHCO3(aq) was added. The mixture was shaken for 30 seconds and the phases were allowed to settle. The organic phase was collected and dried over MgSO4 before the solvent was removed in vacuo at 0° C. Melflufen freebase was isolated as a colorless oil. No degradation of melflufen was observed by HPLC analysis and the oil was stable at room temperature for several days.

[2] = Solubility of melflufen (OPD-5) in propylene glycol; details: approximately 20 mg/mL prepared
Method: (§1) The formulation was prepared by dissolving melflufen (OPD-5) at a concentration of approximately 20 mg/mL (excluding the mass of the counterion) in propylene glycol (1,2-Propanediol, EMPROVE® exp Ph Eur, BP, USP, Merck Chemicals, #K49954578). 1 mL of the melflufen solution was added into each vial. The filled vials were then closed with a rubber stopper and crimp capped. The 1 mL samples were analysed at T0 (i.e. before storage) and after storage for approximately 4 weeks (T1), 8 weeks (T2), 12 weeks (T3), and 24 weeks (T4) at 2-8° C., 25° C. or 40° C.

[3] = Solubility of melflufen (OPD-5) in PEG 300; details: approximately 20 mg/mL prepared
Method: (§2) The formulation was prepared by dissolving melflufen (OPD-5) at a concentration of approximately 20 mg/mL (excluding the mass of the counterion) in polyethylene glycol (polyethylene glycol 300, Emprove exp., Ph. Eur, Merck Chemicals, #K47544702). 1 mL of the melflufen solution was added into each vial. The filled vials were then closed with a rubber stopper and crimp capped. The 1 mL samples were analysed at T0 (i.e. before storage) and after storage for approximately 4 weeks (T1a), 8 weeks (T2a), 12 weeks (T3a), and 24 weeks (T4a) at 2-8° C., 25° C. or 40° C.

[4] = Stability study of formulation containing melflufen (OPD-5) and propylene glycol at 2-8° C., 25° C. and 40° C. (RP-HPLC, visual appearance); details: in propylene glycol; for change in melflufen concentration on storage: up to 168 days
Method: (§3) Vials (2R type 1 glass vials, Gerresheimer, #35601558) were washed with purified water (≤0.2 μmS/cm, <10 ppb Total Organic Carbon (TOC)). Afterwards, the vials were dried and heat-treated at 300° C. for 2 hours. Rubber stoppers were autoclaved at 121° C. and 2 bar for 15 min.
as §1
(§4) RP-HPLC analysis was performed using an Agilent 1100 series Liquid Chromatography, and an)(Bridge® Shield (RP18, 3.5 μm, 4.6×150 mm) column. The method used a 0-80% B gradient over 20 min and a flow of 1.0 mL/min (mobile phase A: 10 mM ammonium acetate pH 5.0/acetonitrile 86/14 v/v; mobile phase B: acetonitrile), a column temperature of 20° C., a sampler temperature of 5° C., and UV detection at 262 nm. The pharmaceutical formulations were diluted to a melflufen concentration of 0.8 mg/mL using an ethanol/acetonitrile diluent (3:7 v/v) prior to RP-HPLC analysis.

[5] = Stability study of formulation containing melflufen (OPD-5) and propylene glycol at −20° C. and −70° C.; details: in propylene glycol
Method: 536.25 mg of melflufen (OPD-5) was weighed into a […] volumetric flask. The flask was then filled with propylene glycol (W294004-1 Kg-K, Lot no: MKCD8681, Sigma-Aldrich). The resulting mixture was vortexed for 3 minutes. The mixture was then stirred for 15 minutes at 28° C. with occasional vortexing to furnish a clear solution having a melflufen concentration of approximately 20 mg/mL (excluding the mass of the counterion). The solution was aliquoted into 1 mL vials and stored at −70° C. or at −20° C.
The concentration and purity (% relative peak area) of melflufen in the propylene glycol formulation was analysed at time 0 (T0b) and then every 1 month by RP-HPLC. For each time point, two replicated were analysed (i.e. two separate vials of the formulation). At each time point the vials were visually checked for any color change or precipitation.
RP-HPLC analysis was performed using an Agilent 1100 series Liquid Chromatography, and an XBridge® C18 (2.1×100 mm, 3.5 μm) column. The method used a 5-95% B gradient over 6 min and a flow of 0.8 mL/min (mobile phase A: 0.1% formic acid in water; mobile phase B: 0.1% formic acid in acetonitrile), a column temperature of 55° C., a sampler temperature of 25° C., and UV detection at 262 nm. Samples were then diluted to 200 μg/mL concentration in DMA before injection into RP-HPLC. An injection volume of 5 μL was used.

[6] = Stability study of formulation containing melflufen (OPD-5) and PEG 300 at 2-8° C., 25° C. and 40° C. (RP-HPLC, visual appearance); details: in PEG 300; for change in melflufen concentration on storage: up to 164 days
Method: as §3, §2
as §4, with “an XBridge®” for “an)(Bridge®”

[7] = 2-8° C., T1 (31 days), hydrochloride
[8] = 2-8° C., T4 (168 days), hydrochloride
[9] = 25° C., T1 (31 days), hydrochloride
[10] = 25° C., T3 (98 days), hydrochloride
[11] = 25° C., T4 (168 days), hydrochloride
[12] = 40° C. (accelerated storage condition), over time
[13] = 2-8° C., T1a (26 days), hydrochloride
[14] = 2-8° C., T2a (54 days), hydrochloride
[15] = 2-8° C., T3a (94 days), hydrochloride
[16] = 25° C., T1a (26 days), hydrochloride
[17] = 25° C., T2a (54 days), hydrochloride
[18] = 25° C., T3a (94 days), hydrochloride
[19] = 25° C., T4a (164 days), hydrochloride

CCOC(=O)[C@H](Cc1ccc(F)cc1)NC(=O)[C@@H](N)Cc1ccc(N(CCCl)CCCl)cc1 [Melflufen freebase, L-Melphalanyl-4-fluoro-L-phenylalanine ethyl ester]
stability of the oil [1]: stable

Cl.[2H]C([2H])([2H])C([2H])([2H])OC(=O)[C@H](Cc1ccc(F)cc1)NC(=O)[C@@H](N)Cc1ccc(N(CCCl)CCCl)cc1 [OPD-5, (^2H5)ethyl (2S)-2-[(2S)-2-amino-3-{4-[bis(2-chloroethyl)amino]phenyl}propanamido]-3-(4-fluorophenyl)propanoate hydrochloride]
solubility in propylene glycol [2]: readily soluble | solubility in PEG 300 [3]: readily soluble | Concentration of melfufen (ODP-5) [4, 7]: 20100 µg/mL and 20200 µg/mL | Purity of melfufen (ODP-5) [4, 7]: 99.1 % relative peak area and 99.3 % relative peak area | Purity of melfufen (ODP-5) ([4]; 2-8° C., T2 (59 days)): 99.2 % relative peak area | Concentration of melfufen (ODP-5) ([4]; 2-8° C., T2 (59 days), hydrochloride): 19800 µg/mL and 20300 µg/mL | Concentration of melfufen (ODP-5) ([4]; 2-8° C., T3 (98 days)): 20500 µg/mL | Purity of melfufen (ODP-5) ([4]; 2-8° C., T3 (98 days), hydrochloride): 99.0 % relative peak area and 98.5 % relative peak area | Concentration of melfufen (ODP-5) [4, 8]: 18400 µg/mL and 18300 µg/mL | Purity of melfufen (ODP-5) [4, 8]: 95.4 % relative peak area and 95.8 % relative peak area | visual appearance ([4]; 2-8° C., at each time point (T1, T2, T3 and T4)): no visible colouration | change in melflufen concentration on storage ([4]; 2-8° C.): no significant change | Concentration of melfufen (ODP-5) [4, 9]: 15700 µg/mL and 15800 µg/mL | Purity of melfufen (ODP-5) [4, 9]: 89.0 % relative peak area and 89.3 % relative peak area | Purity of melfufen (ODP-5) ([4]; 25° C., T2 (59 days)): 81.3 % relative peak area | Concentration of melfufen (ODP-5) ([4]; 25° C., T2 (59 days), hydrochloride): 14100 µg/mL and 12200 µg/mL | Concentration of melfufen (ODP-5) [4, 10]: 8800 µg/mL and 8400 µg/mL | Purity of melfufen (ODP-5) [4, 10]: 68.1 % relative peak area and 66.6 % relative peak area | Concentration of melfufen (ODP-5) [4, 11]: 5100 µg/mL and 4900 µg/mL | Purity of melfufen (ODP-5) [4, 11]: 49.9 % relative peak area and 48.7 % relative peak area | visual appearance ([4]; 25° C., over time (T1 to T4)): yellow to brown colouration that increased in intensity over time | change in melflufen concentration on storage ([4]; 25° C.): decrease over time | visual appearance [4, 12]: yellow to brown colouration that increased in intensity over time | melflufen purity retained (relative to the melflufen purity before storage of the formulation) ([4]; about 5° C. (2 to 8° C.), over 50 days): greater than 95% | time for which the formulation was stable ([5]; −20° C.): at least 6 months | change in melflufen (OPD-5) concentration ([5]; −20° C., 6 month test period): no notable change | melflufen purity retained (relative to the melflufen purity before storage of the formulation) ([5]; −20° C., 6 months): greater than 99.5% | colour change or precipitation (visual check) ([5]; −70° C. and −20° C., 6-8 month test period): No colour change or precipitation | change in melflufen (OPD-5) concentration ([5]; −70° C., 8 month test period): no notable change | melflufen purity retained (relative to the melflufen purity before storage of the formulation) ([5]; −70° C., 8 months): greater than 99.5% | visual appearance ([6]; 2-8° C., 26 days (T1a)): slight yellow colouration | visual appearance ([6]; 2-8° C., 54 days (T2a), 94 days (T3a) and 164 days (T4a)): small increase in the intensity of the yellow colouration | Concentration of melfufen (ODP-5) [6, 13]: 19900 µg/mL and 19800 µg/mL | Purity of melfufen (ODP-5) [6, 13]: 96.7 % relative peak area and 96.9 % relative peak area | Concentration of melfufen (ODP-5) [6, 14]: 19900 µg/mL and 19300 µg/mL | Purity of melfufen (ODP-5) [6, 14]: 95.2 % relative peak area and 95.5 % relative peak area | Concentration of melfufen (ODP-5) [6, 15]: 18700 µg/mL and 18900 µg/mL | Purity of melfufen (ODP-5) [6, 15]: 92.7 % relative peak area and 92.6 % relative peak area | Concentration of melfufen (ODP-5) ([6]; 2-8° C., T4a (164 days)): 18700 µg/mL | Purity of melfufen (ODP-5) ([6]; 2-8° C., T4a (164 days), hydrochloride): 91.4 % relative peak area and 91.3 % relative peak area | change in melflufen concentration on storage ([6]; 2-8° C.): no significant change | Concentration of melfufen (ODP-5) [6, 16]: 18100 µg/mL and 17900 µg/mL | Purity of melfufen (ODP-5) [6, 16]: 89.3 % relative peak area and 89.6 % relative peak area | Concentration of melfufen (ODP-5) [6, 17]: 14400 µg/mL and 15300 µg/mL | Purity of melfufen (ODP-5) [6, 17]: 83.8 % relative peak area and 85.1 % relative peak area | Concentration of melfufen (ODP-5) [6, 18]: 11200 µg/mL and 11300 µg/mL | Purity of melfufen (ODP-5) [6, 18]: 74.2 % relative peak area and 74.7 % relative peak area | Concentration of melfufen (ODP-5) [6, 19]: 9800 µg/mL and 9500 µg/mL | Purity of melfufen (ODP-5) [6, 19]: 70 % relative peak area and 68.1 % relative peak area | visual appearance ([6]; 25° C., over time (T1a to T4a)): yellow to brown colouration that increased in intensity over time | change in melflufen concentration on storage ([6]; 25° C.): decrease over time | visual appearance [6, 12]: yellow to brown colouration that increased in intensity over time
